According to patent publication US6747022B2, “Calcium salts of 1,5-benzodiazepine derivatives, process for producing the salts and drugs containing the same” (Zeria Pharmaceutical Co., Ltd., priority 1999, dated 2004):

Experiments:
[1] = tested on: pentagastrin-stimulated gastric acid secretion; test: Test on inhibition of pentagastrin-stimulated gastric acid secretion; type: in vivo, rat; details: SD rats, 0.03 mg/kg intraduodenal, acid output 1 to 4 hours after administration, pentagastrin 15 μg/kg/hr
Experimental: Test on Inhibition of Pentagastrin-stimulated Gastric Acid Secretion
Male Sprague-Dawley (SD)-strain rats were used. Under anesthesia with ether, each rat was subjected to the operation for pylorus ligation and placement of a duodenal catheter and gastric fistula. After completion of the operation, each rat was held in a Bollman-type cage and constantly infused with 15 μg/kg/hr of pentagastrin through the tail vein. Test compounds were suspended in a 0.5% sodium carboxymethylcellulose solution (which will hereinafter be called “vehicle”). Administration of the vehicle or test compound was carried out through the intraduodenal catheter 1 hour after the beginning of pentagastrin infusion. Acidity of the collected gastric juice was measured by an automatic titrator. Acid output was determined by multiplying the volume of gastric juice by its acidity. Inhibition of acid output for 3 hours from 1 to 4 hours after administration of the test compound was calculated by the following equation.
Inhibition (%)=(mean acid output of vehicle administered group−mean acid output of compound group)/mean acid output of vehicle administered group×100

[2] = molecular target: T1, CCK-B receptor (Cavia porcellus, UniProt H0VZC5); test: Binding test to CCK-B receptor ([3H]CCK-8, cerebral cortex membranes); design: species or system guinea pig; details: inhibition of specific binding of 1.0 nM [3H]CCK-8, 25° C., 2 hours
T1 sequence (H0VZC5 1-426): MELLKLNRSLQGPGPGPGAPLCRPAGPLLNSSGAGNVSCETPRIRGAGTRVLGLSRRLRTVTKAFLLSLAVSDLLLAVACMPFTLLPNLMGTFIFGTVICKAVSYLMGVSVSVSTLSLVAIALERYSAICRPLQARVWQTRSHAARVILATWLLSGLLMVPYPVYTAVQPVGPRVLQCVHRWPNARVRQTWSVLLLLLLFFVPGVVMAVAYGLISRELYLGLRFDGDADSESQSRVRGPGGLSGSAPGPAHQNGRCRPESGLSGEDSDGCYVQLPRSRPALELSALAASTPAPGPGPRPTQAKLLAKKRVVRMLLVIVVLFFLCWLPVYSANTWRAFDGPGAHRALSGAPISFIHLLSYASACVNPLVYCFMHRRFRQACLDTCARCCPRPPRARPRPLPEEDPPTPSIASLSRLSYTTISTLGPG
Experimental: Binding Test to CCK-B Receptor
The cerebral cortex excised from a Hartley-strain male guinea pig was homogenized in 50 times the amount of a 50 mM Tris-HCl buffer (pH 7.4), followed by centrifugal separation at 50000×g for 10 minutes. Addition of the same amount of the same buffer to the precipitate thus obtained and centrifugation were repeated 2 times. The final precipitate was homogenized in a 10 mM HEPES buffer (pH 6.5) containing 5 mM magnesium chloride, 1 mM EGTA, 0.25 mg/ml bacitracin and 130 mM sodium chloride, and used as the receptor preparation.
Binding assay was conducted by adding, to 50 μl of a test compound solution, 50 μl of a [^3H]CCK-8 solution having the final concentration of 1.0 nM and 900 μl of the receptor preparation (protein content: 800 μg/tube) and reacting them at 25° C. for 2 hours. After completion of the reaction, the mixture was suction filtrated through a Whatman GF/B filter treated in advance with 0.1% BSA. Rightly after filtration, the filter was washed four times, each with 3 ml of ice-cold 50 mM Tris-HCl buffer (pH 7.4). After a scintillator was added to the filter and the resulting filter was then allowed to stand for a day, radioactivity on the filter was measured by a liquid scintillation counter. The binding of [^3H]CCK-8 in the presence of 1 μM CCK-8 when the test compound was not added was defined as non-specific binding. […]

[3] = Test on hygroscopicity under high humidity conditions (1), 0.5 g sample; type: physicochemical
Experimental: (§1) Test 3 (Test on Hygroscopicity under High Humidity Conditions)
(§2) (1) A saturated aqueous solution of potassium sulfate was charged in a desiccator and was allowed to stand for at least one day in a temperature controlled room set at 25° C. The sample (0.5 g) was stored and weighed. Hygroscopicity was measured by its weight change. The relative humidity at that time was 97.3% RH.

[4] = Test on hygroscopicity under high humidity conditions (2), 0.1 g sample; type: physicochemical
Experimental: as §1
as §2, with “(2)” for “(1)”, “(0.1” for “(0.5”

## CC(C)(C)C(=O)CN1C(=O)[C@H](NC(=O)Nc2cccc(C(=O)O)c2)CN(C2CCCCC2)c2ccccc21 [Compound of Example 1 in the free form, (R)-(−)-3-[3-(1-tert-butylcarbonylmethyl-2-oxo-5-cyclohexyl-1,3,4,5-tetrahydro-2H-1,5-benzodiazepin-3-yl)ureido]benzoic acid, reference compound]
[1]
  Inhibition of acid output (%): 4.8%
[2]
  IC50: 1.45 nM

## CC(C)(C)C(=O)CN1C(=O)[C@H](NC(=O)Nc2cccc(C(=O)[O-])c2)CN(C2CCCCC2)c2ccccc21.CC(C)(C)C(=O)CN1C(=O)[C@H](NC(=O)Nc2cccc(C(=O)[O-])c2)CN(C2CCCCC2)c2ccccc21.[Ca+2] [Compound of Example 1 (Ca salt), calcium (R)-(−)-3-[3-(1-tert-butylcarbonylmethyl-2-oxo-5-cyclohexyl-1,3,4,5-tetrahydro-2H-1,5-benzodiazepin-3-yl)ureido]benzoate]
[1]
  Inhibition of acid output (%): 42.3%
[2]
  IC50: 1.68 nM
[3]; 25° C., 97.3% RH, versus Na salt of Compound of Example 143 in WO98/25911
  Hygroscopicity compared with the corresponding Na salt: lower hygroscopicity
[3]; storage time 0 day
  Weight change (%) when stored at 25° C. and 97.3% RH: 0%
[3]; storage time 1 day
  Weight change (%) when stored at 25° C. and 97.3% RH: 4.61%
[3]; storage time 2 days
  Weight change (%) when stored at 25° C. and 97.3% RH: 5.00%
[3]; storage time 3 days
  Weight change (%) when stored at 25° C. and 97.3% RH: 4.94%
[3]; storage time 4 days
  Weight change (%) when stored at 25° C. and 97.3% RH: 4.97%
[3]; storage time 10 days
  Weight change (%) when stored at 25° C. and 97.3% RH: 5.43%
[3]; storage time 14 days
  Weight change (%) when stored at 25° C. and 97.3% RH: 5.41%

## calcium (R)-(−)-2-[3-[3-(1-tert-butylcarbonylmethyl-2-oxo-5-cyclohexyl-1,3,4,5-tetrahydro-2H-1,5-benzodiazepin-3-yl)ureido]phenyl]-2-methylpropionate [Compound of Example 4 (Ca salt)]
[1]; Table 2
  Inhibition of acid output (%): 46.1%
[4]; 25° C., 97.3% RH, versus Compound of Example 5 in WO99/64403
  Hygroscopicity compared with the corresponding Na salt: lower hygroscopicity
[4]; storage days 0
  Weight change (%) when stored at 25° C. and 97.3% RH: 0%
[4]; storage days 2
  Weight change (%) when stored at 25° C. and 97.3% RH: 8.15%
[4]; storage days 4
  Weight change (%) when stored at 25° C. and 97.3% RH: 7.87%
[4]; storage days 7
  Weight change (%) when stored at 25° C. and 97.3% RH: 8.38%
[4]; storage days 9
  Weight change (%) when stored at 25° C. and 97.3% RH: 9.07%
[4]; storage days 11
  Weight change (%) when stored at 25° C. and 97.3% RH: 8.14%
[4]; storage days 18
  Weight change (%) when stored at 25° C. and 97.3% RH: 8.51%
[4]; storage days 30
  Weight change (%) when stored at 25° C. and 97.3% RH: 8.23%

## CC(C)(C)C(=O)CN1C(=O)[C@H](NC(=O)Nc2cccc(C(C)(C)C(=O)O)c2)CN(C2CCCCC2)c2ccccc21 [Compound of Example 4 in the free form, (R)-(−)-2-[3-[3-(1-tert-butylcarbonylmethyl-2-oxo-5-cyclohexyl-1,3,4,5-tetrahydro-2H-1,5-benzodiazepin-3-yl)ureido]phenyl]-2-methylpropionic acid, reference compound]
[1]; Table 2
  Inhibition of acid output (%): 13.7%
